According to patent US11414425B2 (priority 2018, dated 2022):
Like-named read-outs stand apart in the source and are kept apart here.

What was measured:
α5β3γ2 GABAA receptors = α5β3γ2 GABAA receptors (Homo sapiens, UniProt P18507+P31644); experiment: [3H]Ro15-1788 binding, membranes of Ltk cells stably expressing α5β3γ2 GABAA receptors
GABAA receptors (α5β2γ2) = target: T1, GABAA receptors (α5β2γ2) (Homo sapiens, UniProt P18507+P31644); experiment: Positive allosteric modulator activity: potentiation of EC20 GABA current in oocytes; format: cell-based; conditions: read-out: GABA α5 Functional Data (potentiation of EC20 GABA)
T1 construct: expressed in transfected cells
Experimental: On day 1, 1 ng/32 nL of GABAA α5β2γ2 cDNA was injected into one oocyte. Test starts on day 2. The cDNA injected to the oocytes was a mix of alpha, beta and gamma, their ratio is 1:1:10 (by weight) and the total weight of the mixed 3 subunits to be injected in one oocyte was 1 ng in 32 nl volume. The injected oocytes can also be tested on day 3. In such case, the cDNA amount injected to the oocytes should be reduced by 20%.
1). 8 oocytes were placed in 8 chambers of OpusXpress and superfused with Modified Barth's Saline (MBS) at 3 mL/min. Glass electrodes back-filled with 3M KCl (0.5-3 megaohms) were used.
1). New oocytes were used to run new test.
3). […] Oocytes were washed with MBS for 5-10 min.
4). […] Itest was divided by IGABA to obtain potentiation (%).
Test Compounds at Multiple Doses • 1). Repeat the above steps 1), 2) and 3) in the control test. • 2). […] Divide Itest by IGABA to obtain potentiation (%). • 3). Discard all tested oocytes, new oocytes were used and the above steps 1) and 2) were repeated to test second concentration of the same compound. Each oocyte was used for only one concentration test for a single test compound. The steps were repeated for other test compounds.

[1] = ranges, inhibition of [3H]Ro15-1788 binding

T1 sequence (P31644 32-462): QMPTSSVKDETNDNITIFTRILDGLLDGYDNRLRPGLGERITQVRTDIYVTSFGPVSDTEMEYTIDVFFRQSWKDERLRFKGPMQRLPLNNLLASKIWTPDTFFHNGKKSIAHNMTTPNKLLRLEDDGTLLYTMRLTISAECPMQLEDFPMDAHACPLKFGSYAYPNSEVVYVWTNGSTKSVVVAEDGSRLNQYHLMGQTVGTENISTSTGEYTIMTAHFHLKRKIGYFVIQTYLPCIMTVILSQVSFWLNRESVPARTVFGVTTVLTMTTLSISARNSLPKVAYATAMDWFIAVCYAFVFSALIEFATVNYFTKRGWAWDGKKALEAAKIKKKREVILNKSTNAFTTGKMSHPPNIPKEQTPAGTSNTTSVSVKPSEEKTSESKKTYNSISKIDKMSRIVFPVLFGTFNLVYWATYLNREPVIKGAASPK
T1 sequence (P47870 25-512, further chain): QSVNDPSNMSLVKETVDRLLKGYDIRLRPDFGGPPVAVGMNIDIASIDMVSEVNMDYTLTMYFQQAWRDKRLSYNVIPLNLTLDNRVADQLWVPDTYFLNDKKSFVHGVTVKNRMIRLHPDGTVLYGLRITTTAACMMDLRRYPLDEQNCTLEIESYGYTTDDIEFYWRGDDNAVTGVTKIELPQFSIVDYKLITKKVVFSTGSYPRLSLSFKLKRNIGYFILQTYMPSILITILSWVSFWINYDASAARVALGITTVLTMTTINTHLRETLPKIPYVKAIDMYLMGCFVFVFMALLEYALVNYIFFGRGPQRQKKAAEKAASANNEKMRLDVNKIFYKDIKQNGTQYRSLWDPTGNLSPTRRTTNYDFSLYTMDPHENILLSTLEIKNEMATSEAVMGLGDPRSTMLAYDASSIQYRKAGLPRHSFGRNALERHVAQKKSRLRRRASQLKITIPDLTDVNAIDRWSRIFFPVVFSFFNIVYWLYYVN
T1 sequence (P18507 40-475): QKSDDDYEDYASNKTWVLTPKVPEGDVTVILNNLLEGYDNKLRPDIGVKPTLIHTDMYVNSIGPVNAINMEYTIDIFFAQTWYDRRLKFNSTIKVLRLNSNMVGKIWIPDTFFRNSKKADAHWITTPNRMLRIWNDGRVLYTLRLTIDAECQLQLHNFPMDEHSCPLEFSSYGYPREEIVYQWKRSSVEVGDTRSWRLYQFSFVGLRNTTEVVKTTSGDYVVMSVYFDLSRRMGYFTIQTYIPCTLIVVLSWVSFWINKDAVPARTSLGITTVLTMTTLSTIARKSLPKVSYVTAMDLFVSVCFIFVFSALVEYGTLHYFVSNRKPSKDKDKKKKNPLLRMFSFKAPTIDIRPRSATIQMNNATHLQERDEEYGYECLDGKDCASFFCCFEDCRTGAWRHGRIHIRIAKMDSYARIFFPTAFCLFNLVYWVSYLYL
Chain of α5β3γ2 GABAA receptors (P31644 32-462): as the sequence (P31644 32-462) above
Chain of α5β3γ2 GABAA receptors (P28472 26-473 partner): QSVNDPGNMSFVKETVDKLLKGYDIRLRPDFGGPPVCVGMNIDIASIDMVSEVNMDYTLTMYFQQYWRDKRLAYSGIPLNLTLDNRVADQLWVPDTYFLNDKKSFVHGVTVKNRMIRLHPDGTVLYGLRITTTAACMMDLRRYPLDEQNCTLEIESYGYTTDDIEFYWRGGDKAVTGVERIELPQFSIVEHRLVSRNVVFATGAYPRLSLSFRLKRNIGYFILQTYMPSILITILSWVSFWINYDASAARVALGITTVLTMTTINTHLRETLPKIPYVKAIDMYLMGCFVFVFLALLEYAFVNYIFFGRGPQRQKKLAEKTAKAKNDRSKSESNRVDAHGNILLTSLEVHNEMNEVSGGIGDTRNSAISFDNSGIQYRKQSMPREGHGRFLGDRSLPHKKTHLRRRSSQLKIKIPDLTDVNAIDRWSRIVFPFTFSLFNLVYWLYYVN
Chain of α5β3γ2 GABAA receptors (P18507 40-475): as the sequence (P18507 40-475) above

Row | Compound | Ki (α5β3γ2 GABAA receptors) [nM] | activation at 0.1 µM (GABAA receptors (α5β2γ2)) [%] | Ki (α5β3γ2 GABAA receptors; [1]) [nM] | activation at 0.1 µM (GABAA receptors (α5β2γ2); @ 100 nM, ranges) [%]
1 | Cc1nnc(-c2ncn3c2Cc2cnnn2-c2cc(Cl)ccc2-3)s1 [Compound 509] | < 100 | 20 to 50 |  | 
2 | COc1ccc2c(c1)-n1nncc1Cc1c(C#Cc3ccn(C)n3)ncn1-2 [Compound 670] |  |  | < 100 | > 50
3 | COCc1nnc2n1Cc1c(C#Cc3cnc(OC)c(C)c3)ncn1-c1ccc(Cl)cc1-2 [Compound 698] |  |  | < 100 | 5 to 20
4 | COCc1nnc2n1Cc1c(C#Cc3ccc(OC)nn3)ncn1-c1ccc(Cl)cc1-2 [Compound 707] |  |  | < 100 | > 50
5 | Cc1nc(-c2ncn3c2Cc2c(Cc4ccc(F)cc4)nnn2-c2cc(C(F)(F)F)ccc2-3)no1 [Compound 493] |  |  | < 100 | 5 to 20
6 | FC(F)(F)c1ccc2c(c1)-n1nncc1Cc1c(C#CC3(c4ccccc4)CC3)ncn1-2 [Compound 503] |  |  | < 100 | 5 to 20
7 | Clc1ccc2c(c1)-n1nncc1Cc1c(-c3cn(Cc4ccccc4)nn3)ncn1-2 [Compound 523] |  |  | < 100 | 5 to 20
8 | COCc1nnc2n1Cc1c(C#Cc3ccc(OC)nc3)ncn1-c1ccc(OC)cc1-2 [Compound 703] |  |  | < 100 | 20 to 50
9 | COc1ccc(C#Cc2ncn3c2Cc2cnnn2-c2cc(OC)ccc2-3)nc1 [Compound 531] |  |  | < 100 | 5 to 20
10 | COCc1nnc2n1Cc1c(C#Cc3cnc(C)s3)ncn1-c1ccc(Cl)cc1-2 [Compound 608] |  |  | < 100 | 20 to 50
11 | Cc1cncc(C#Cc2ncn3c2Cc2cnnn2-c2cc(Cl)ccc2-3)c1 [Compound 618] |  |  | < 100 | 20 to 50
12 | COCc1nnc2n1Cc1c(C#Cc3ccc(OC)nn3)ncn1-c1ccc(OC)cc1-2 [Compound 712] |  |  | < 100 | > 50
13 | COCc1nnc2n1Cc1c(C#Cc3ccc(OC)cn3)ncn1-c1ccc(OC)cc1-2 [Compound 603] |  |  | < 100 | > 50
14 | COCc1nnc2n1Cc1c(C3=NC(C)CO3)ncn1-c1ccc(Cl)cc1-2 (stereo not drawn) [Compound 243] |  |  | < 100 | 20 to 50
15 | CCOc1ccc(C#Cc2ncn3c2Cn2c(COC)nnc2-c2cc(OC)ccc2-3)cn1 [Compound 710] |  |  | < 100 | 5 to 20
16 | COc1ccc2c(c1)-n1nncc1Cc1c(C3=NC[C@H](c4ccccc4)O3)ncn1-2 [Compound 511] |  |  | < 100 | 5 to 20
17 | COCc1nnn2c1Cc1c(C#Cc3cncc(C)c3)ncn1-c1ccc(Cl)cc1-2 [Compound 639] |  |  | < 100 | 20 to 50
18 | COc1ccc2c(c1)-n1nncc1Cc1c(C3=N[C@H](c4ccccc4)CO3)ncn1-2 [Compound 290] |  |  | < 100 | 20 to 50
19 | COc1ccc2c(c1)-n1nncc1Cc1c(C#Cc3ccnn3C)ncn1-2 [Compound 669] |  |  | < 100 | > 50
20 | Fc1ccc([C@@H]2COC(c3ncn4c3Cc3cnnn3-c3cc(Cl)ccc3-4)=N2)cc1 [Compound 522] |  |  | < 100 | 5 to 20
21 | Cc1noc(-c2ncn3c2Cc2c(Cc4ccc(F)cc4)nnn2-c2cc(OC(F)F)ccc2-3)n1 [Compound 492] |  |  | < 100 | 20 to 50
22 | COCc1nnn2c1Cc1c(C#Cc3cnc(OC)s3)ncn1-c1ccc(Cl)cc1-2 [Compound 644] |  |  | < 100 | 20 to 50
23 | COc1cccc(C2CN=C(c3ncn4c3Cc3cnnn3-c3cc(Cl)ccc3-4)O2)n1 (stereo not drawn) [Compound 631] |  |  | < 100 | 5 to 20
24 | COc1ccc(C#Cc2ncn3c2Cc2cnnn2-c2cc(OC(F)F)ccc2-3)cn1 [Compound 555] |  |  | < 100 | 5 to 20
25 | FC(F)(F)Oc1ccc2c(c1)-n1nncc1Cc1c(C3=N[C@H](c4ccccc4)CO3)ncn1-2 [Compound 507] |  |  | < 100 | 5 to 20

Row | Compound | Ki (α5β3γ2 GABAA receptors) [nM] | activation at 0.1 µM (GABAA receptors (α5β2γ2)) [%] | Ki (α5β3γ2 GABAA receptors; [1]) [nM] | activation at 0.1 µM (GABAA receptors (α5β2γ2); @ 100 nM, ranges) [%]
26 | Clc1ccc2c(c1)-n1nncc1Cc1c(C3=NC[C@@H](c4ccccc4)O3)ncn1-2 [Compound 514] |  |  | < 100 | 5 to 20
27 | COc1ccc2c(c1)-n1nncc1Cc1c(C3=NC[C@@H](c4ccccc4)O3)ncn1-2 [Compound 512] |  |  | < 100 | 5 to 20
28 | COCc1nnc2n1Cc1c(C#Cc3nc(C)cs3)ncn1-c1ccc(Cl)cc1-2 [Compound 605] |  |  | < 100 | > 50
29 | COCc1nnc2n1Cc1c(C#Cc3cnc(OC)s3)ncn1-c1ccc(OC)cc1-2 [Compound 619] |  |  | < 100 | 5 to 20
30 | COCc1nnc2n1Cc1c(C#Cc3cnc(OC)s3)ncn1-c1ccc(Cl)cc1-2 [Compound 606, 5-((3-chloro-7-(methoxymethyl)-9H-benzo[f]imidazo[1,5-a][1,2,4]triazolo[4,3-d][1,4]diazepin-10-yl)ethynyl)-2-methoxythiazole] |  |  | < 100 | 20 to 50
31 | Cc1noc(-c2ncn3c2Cc2c(Cc4cccc(F)c4)nnn2-c2cc(OC(F)F)ccc2-3)n1 [Compound 491] |  |  | < 100 | 20 to 50
32 | COCc1nnc2n1Cc1c(C#Cc3cnc(C)n3C)ncn1-c1ccc(Cl)cc1-2 [Compound 671] |  |  | < 100 | > 50
33 | Fc1ccc(C#Cc2ncn3c2Cc2cnnn2-c2cc(C(F)(F)F)ccc2-3)cc1 [Compound 501] |  |  | < 100 | 20 to 50
34 | COc1ccc2c(c1)-n1nncc1Cc1c(C#Cc3cnc(C)n3C)ncn1-2 [Compound 667] |  |  | < 100 | > 50
35 | Clc1ccc([C@@H]2COC(c3ncn4c3Cc3cnnn3-c3cc(Cl)ccc3-4)=N2)cc1 [Compound 518] |  |  | < 100 | 5 to 20
36 | COCc1nnc2n1Cc1c(C#Cc3cncc(OC)c3)ncn1-c1ccc(Cl)cc1-2 [Compound 559] |  |  | < 100 | 5 to 20
37 | COCc1nnn2c1Cc1c(C#Cc3ccc(OC)nc3)ncn1-c1ccc(OC)cc1-2 [Compound 641] |  |  | < 100 | 20 to 50
38 | CC(C)(C)c1nc(-c2ncn3c2Cc2cnnn2-c2cc(Cl)ccc2-3)no1 [Compound 536] |  |  | < 100 | 20 to 50
39 | COCc1nnc2n1Cc1c(C#Cc3ncc(C)s3)ncn1-c1ccc(Cl)cc1-2 [Compound 607] |  |  | < 100 | 20 to 50
40 | COCc1nnc2n1Cc1c(C#Cc3cccc(C)n3)ncn1-c1ccc(Cl)cc1-2 [Compound 596] |  |  | < 100 | > 50
41 | CC(C)(C)C#Cc1ncn2c1Cc1cnnn1-c1cc(Cl)ccc1-2 [Compound 534] |  |  | < 100 | 5 to 20
42 | COCc1nnc2n1Cc1c(C#Cc3cnc4occc4c3)ncn1-c1ccc(Cl)cc1-2 [Compound 680] |  |  | < 100 | 20 to 50
43 | COCc1nnc2n1Cc1c(C#Cc3ccnn3C)ncn1-c1ccc(Cl)cc1-2 [Compound 682] |  |  | < 100 | > 50
44 | COCc1nnn2c1Cc1c(C#Cc3ccc(OC)cn3)ncn1-c1ccc(Cl)cc1-2 [Compound 637] |  |  | < 100 | 20 to 50
45 | Clc1ccc2c(c1)-n1nncc1Cc1c(COCc3ccccc3)ncn1-2 [Compound 544] |  |  | < 100 | 5 to 20
46 | CCc1cncc(C#Cc2ncn3c2Cc2c(COC)nnn2-c2cc(Cl)ccc2-3)c1 [Compound 638] |  |  | < 100 | > 50
47 | COc1ccc2c(c1)-n1nncc1Cc1c(C#CCc3ccccc3OC(F)(F)F)ncn1-2 [Compound 420] |  |  |  | 5 to 20
48 | CC(C)C#Cc1ccc2c(c1)-n1nncc1Cc1c(Br)ncn1-2 [Compound 454] |  |  |  | 5 to 20
49 | COCc1nnc2n1Cc1c(C#Cc3ccnn3C)ncn1-c1ccc(OC)cc1-2 [Compound 686] |  |  |  | > 50
50 | Clc1ccc2c(c1)-c1nnc(COCc3ccccc3)n1Cc1c(-c3ncco3)ncn1-2 [Compound 350] |  |  |  | > 50
